Measurements reported in PubChem BioAssay AID248 (DTP/NCI, 2004).
“And” between values parts separate entries of the source, which are not always exact repeats. Equal entries are not always repeated. Toxic doses and inconclusive results are not listed. Cut-off read from the data, not from the text of the source: active = T/C of 150% or more; inactive = T/C below 125%.

Test system: L1210 leukemia ip in BDF1 mice, survival T/C
Experiment: NCI In Vivo Anticancer Drug Screen. Data for tumor model L1210 Leukemia (intraperitoneal) in B6D2F1 (BDF1) mice
Details: endpoint: mean survival time, higher = longer survival
Outline: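 Mice bearing the transplanted tumor received compound or vehicle. Survival of the treated group was divided by that of the vehicle-treated control group to give the ratio.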

[1] = dose: 100.0 mg/kg/injection, schedule: Q04DX003 (ip), vehicle: saline with Tween-80
[2] = dose: 50.0 mg/kg/injection, schedule: Q01DX001 (ip), vehicle: saline
[3] = dose: 100.0 mg/kg/injection, schedule: Q01DX001 (ip), vehicle: saline
[4] = dose: 200.0 mg/kg/injection, schedule: Q01DX001 (ip), vehicle: saline
[5] = dose: 400.0 mg/kg/injection, schedule: Q01DX001 (ip), vehicle: saline
[6] = dose: 100.0 mg/kg/injection, schedule: Q01DX001 (ip), vehicle: carboxymethylcellulose (CMC)
[7] = dose: 200.0 mg/kg/injection, schedule: Q01DX001 (ip), vehicle: carboxymethylcellulose (CMC)
[8] = dose: 400.0 mg/kg/injection, schedule: Q01DX001 (ip), vehicle: carboxymethylcellulose (CMC)
[9] = dose: 100.0 mg/kg/injection, schedule: Q04DX003 (ip), vehicle: saline
[10] = dose: 200.0 mg/kg/injection, schedule: Q04DX003 (ip), vehicle: saline
[11] = dose: 100.0 mg/kg/injection, schedule: Q01DX009 (ip), vehicle: saline
[12] = dose: 100.0 mg/kg/injection, schedule: Q01DX009 (ip), vehicle: saline with Tween-80
[13] = dose: 200.0 mg/kg/injection, schedule: Q01DX009 (ip), vehicle: saline with Tween-80
[14] = dose: 400.0 mg/kg/injection, schedule: Q01DX009 (ip), vehicle: saline with Tween-80
[15] = dose: 200.0 mg/kg/injection, schedule: Q01DX009 (ip), vehicle: saline
[16] = dose: 200.0 mg/kg/injection, schedule: Q04DX003 (ip), vehicle: saline with Tween-80
[17] = dose: 400.0 mg/kg/injection, schedule: Q04DX003 (ip), vehicle: saline with Tween-80

Measured: T/C

COc1ccc2c3c1OC1C(O)CCC4C(C2)N(C)CCC341 (configuration not stated)
inactive: dose: 75.0 mg/kg/injection, schedule: Q01DX001 (ip), vehicle: saline 92 % of control | dose: 100.0 mg/kg/injection, schedule: Q01DX001 (ip), vehicle: saline with Tween-80 102 % of control | dose: 150.0 mg/kg/injection, schedule: Q01DX001 (ip), vehicle: saline 94 % of control | dose: 200.0 mg/kg/injection, schedule: Q01DX001 (ip), vehicle: saline with Tween-80 102 % of control | dose: 300.0 mg/kg/injection, schedule: Q01DX001 (ip), vehicle: saline 101 % of control

O=C(/C(=C\c1ccccc1)CBr)c1ccc(Cl)cc1
inactive: [1] 119 % of control

CCOC(=O)CC(C)(C)CC(=O)C1CNC2=C(C1)C(=O)CC(C)(C)C2 (configuration not stated)
inactive: dose: 100.0 mg/kg/injection, schedule: Q01DX005 (ip), vehicle: Klucel (hydroxypropylcellulose) (HPC) 102 % of control | dose: 100.0 mg/kg/injection, schedule: Q04DX002 (ip), vehicle: Klucel (hydroxypropylcellulose) (HPC) 89 % of control | dose: 200.0 mg/kg/injection, schedule: Q01DX005 (ip), vehicle: Klucel (hydroxypropylcellulose) (HPC) 118 % of control | dose: 200.0 mg/kg/injection, schedule: Q04DX002 (ip), vehicle: Klucel (hydroxypropylcellulose) (HPC) 92 % of control | dose: 400.0 mg/kg/injection, schedule: Q01DX005 (ip), vehicle: Klucel (hydroxypropylcellulose) (HPC) 91 % of control | dose: 400.0 mg/kg/injection, schedule: Q04DX002 (ip), vehicle: Klucel (hydroxypropylcellulose) (HPC) 97 % of control

O=C(c1cccc([N+](=O)[O-])c1)c1cccc([N+](=O)[O-])c1
inactive: dose: 100.0 mg/kg/injection, schedule: Q01DX001 (ip), vehicle: Klucel (hydroxypropylcellulose) (HPC) 117 % of control | dose: 200.0 mg/kg/injection, schedule: Q01DX001 (ip), vehicle: Klucel (hydroxypropylcellulose) (HPC) 97 % of control | dose: 400.0 mg/kg/injection, schedule: Q01DX001 (ip), vehicle: Klucel (hydroxypropylcellulose) (HPC) 94 % of control

Cc1ccc2ccc3ccc(C)nc3c2n1
inactive: dose: 12.5 mg/kg/injection, schedule: Q04DX003 (ip), vehicle: Klucel (hydroxypropylcellulose) (HPC) 99 % of control | dose: 25.0 mg/kg/injection, schedule: Q04DX003 (ip), vehicle: Klucel (hydroxypropylcellulose) (HPC) 97 % of control | dose: 50.0 mg/kg/injection, schedule: Q04DX003 (ip), vehicle: Klucel (hydroxypropylcellulose) (HPC) 101 % of control

CC(=O)Nc1cc([N+](=O)[O-])ccc1OCc1ccccc1
inactive: [2] 92 % of control | [3] 91 % of control | [4] 88 % of control | [5] 97 % of control

CCCCC(=O)N/N=C/c1c[nH]c2ccc(Br)cc12
inactive: [6] 88 % of control | [7] 93 % of control | [8] 93 % of control

FC(F)(F)C1=NC(=S)C(c2[nH]c(C(F)(F)F)nc2S)=N1
inactive: dose: 25.0 mg/kg/injection, schedule: Q01DX009 (ip), vehicle: water 91 % of control | dose: 50.0 mg/kg/injection, schedule: Q01DX009 (ip), vehicle: water 96 % of control | dose: 100.0 mg/kg/injection, schedule: Q01DX009 (ip), vehicle: water 96 % of control | dose: 200.0 mg/kg/injection, schedule: Q01DX009 (ip), vehicle: water 110 % of control

C1C2C1C1C3C2C2C4C5CC5C5C2C1C1C5C4C31 (configuration not stated)
inactive: [2] 106 % of control | [3] 112 % of control | [4] 122 % of control | [5] 106 % of control

OCC1OCOC(CI)C(O)C1O (configuration not stated)
inactive: [6] 97 % of control | [7] 101 % of control | [8] 97 % of control

COc1ccc(N=Cc2cc(Br)cc(Br)c2O)cc1.COc1ccc(N=Cc2cc(Br)cc(Br)c2O)cc1.[Co]
inactive: dose: 50.0 mg/kg/injection, schedule: Q04DX003 (ip), vehicle: saline 92 % of control | [9] 92 % of control | [10] 95 % of control

C=C(c1ccccc1)[P+](c1ccccc1)(c1ccccc1)c1ccccc1
inactive: dose: 15.0 mg/kg/injection, schedule: Q01DX001 (ip), vehicle: saline 109 % of control

C[n+]1csc(=S)[nH]1
inactive: [11] 98 % of control

FC(F)(F)c1cccc(NC(=S)N/N=C/c2ccccc2)c1
inactive: [12] 92 % of control | [13] 97 % of control | [14] 94 % of control

CCOP(=S)(OCC)Oc1cccc(NC(=O)CC)c1
inactive: [12] 102 % of control | [13] 104 % of control | [14] 93 % of control

CC(C)(CCCl)NCc1ccccc1
inactive: dose: 25.0 mg/kg/injection, schedule: Q01DX009 (ip), vehicle: saline 101 % of control | dose: 50.0 mg/kg/injection, schedule: Q01DX009 (ip), vehicle: saline 104 % of control | [11] 88 % of control | [9] 99 % of control

CCCCOP(=O)(OCCCC)O/C(C)=C(\C)OP(=O)(OCCCC)OCCCC
inactive: dose: 87.5 mg/kg/injection, schedule: Q01DX009 (ip), vehicle: carboxymethylcellulose (CMC) 92 % of control | dose: 175.0 mg/kg/injection, schedule: Q01DX009 (ip), vehicle: carboxymethylcellulose (CMC) 98 % of control

CC12CC3CC(C1)CC(C(=O)O)(C3)C2
inactive: [11] 110 % of control | [9] 97 % of control | [15] 100 % of control | [10] 97 % of control | dose: 400.0 mg/kg/injection, schedule: Q04DX003 (ip), vehicle: saline 101 % of control

Cc1nc2ccc(Cl)cc2c(=O)[nH]1
inactive: dose: 100.0 mg/kg/injection, schedule: Q01DX001 (ip), vehicle: other 102 % of control | dose: 100.0 mg/kg/injection, schedule: Q04DX003 (ip), vehicle: other 96 % of control | dose: 200.0 mg/kg/injection, schedule: Q01DX001 (ip), vehicle: other 96 % of control | dose: 200.0 mg/kg/injection, schedule: Q04DX003 (ip), vehicle: other 96 % of control | dose: 400.0 mg/kg/injection, schedule: Q01DX001 (ip), vehicle: other 104 % of control | dose: 400.0 mg/kg/injection, schedule: Q04DX003 (ip), vehicle: other 96 % of control

COc1ccc(/C=N/NC(N)=S)cc1
inactive: dose: 32.0 mg/kg/injection, schedule: Q01DX009 (ip), vehicle: saline 101 % of control and 92 % of control | dose: 32.0 mg/kg/injection, schedule: Q01DX010 (ip), vehicle: saline 97 % of control and 91 % of control | dose: 64.0 mg/kg/injection, schedule: Q01DX009 (ip), vehicle: saline 98 % of control and 100 % of control | dose: 64.0 mg/kg/injection, schedule: Q01DX010 (ip), vehicle: saline 96 % of control and 91 % of control | dose: 64.0 mg/kg/injection, schedule: Q01DX010 (iv), vehicle: saline 92 % of control | [11] 104 % of control | [1] 95 % of control | dose: 128.0 mg/kg/injection, schedule: Q01DX009 (ip), vehicle: saline 97 % of control and 102 % of control | dose: 128.0 mg/kg/injection, schedule: Q01DX010 (ip), vehicle: saline 94 % of control and 95 % of control | dose: 128.0 mg/kg/injection, schedule: Q01DX010 (iv), vehicle: saline 92 % of control | [4] 94 % of control | dose: 200.0 mg/kg/injection, schedule: Q01DX009 (ip), vehicle: acetone 95 % of control | [15] 100 % of control | [16] 95 % of control | dose: 256.0 mg/kg/injection, schedule: Q01DX009 (ip), vehicle: saline 101 % of control and 109 % of control | dose: 256.0 mg/kg/injection, schedule: Q01DX010 (ip), vehicle: saline 97 % of control and 90 % of control | dose: 256.0 mg/kg/injection, schedule: Q01DX010 (iv), vehicle: saline 102 % of control | [5] 100 % of control | dose: 400.0 mg/kg/injection, schedule: Q01DX009 (ip), vehicle: acetone 88 % of control | dose: 400.0 mg/kg/injection, schedule: Q01DX009 (ip), vehicle: saline 98 % of control | [17] 102 % of control | dose: 800.0 mg/kg/injection, schedule: Q01DX001 (ip), vehicle: saline 96 % of control

COc1ccccc1NC(=O)Nc1ccc(N(C)C)cc1
inactive: [12] 91 % of control | [1] 86 % of control | [13] 96 % of control | [16] 94 % of control | [14] 102 % of control | [17] 95 % of control
